From patent US9126945B2, “N-(3-carbamoylphenly)-1H-pyrazole-5-carboxamide derivatives and the use thereof for controlling animal pests” (BAYER INTELLECTUAL PROPERTY GMBH, priority 2011, dated 2015)

What was measured:
Nilaparvata lugens = Nilaparvata lugens spray test (NILALU); type: in vivo; conditions: 168 h, 7 dat
Text: Nilaparvata lugens Spray Test (NILALU)
(§1) If the addition of ammonium salts or/and penetrants is required, these are in each case added in a concentration of 1000 ppm to the solution of the preparation.

Spodoptera frugiperda [1] = experiment: Spodoptera frugiperda test (SPODFR spray treatment), maize leaf discs; type: in vivo
Text: Spodoptera frugiperda Test (SPODFR Spray Treatment)

Phaedon cochleariae [2] = experiment: Phaedon test (PHAECO spray treatment), Chinese cabbage leaf discs
Ctenocephalides felis = Ctenocephalides felis oral (CTECFE); type: in vivo
Lucilia cuprina larvae = experiment: Lucilia cuprina test (LUCICU); type: in vivo; conditions: 100 ppm; after 2 days
Description: Lucilia cuprina Test (LUCICU)
(§2) Solvent: dimethyl sulphoxide
Vessels containing horse meat treated with the active compound preparation of the desired concentration are populated with about 20 Lucilia cuprina larvae.
After 2 days, the kill in % is determined.

Spodoptera frugiperda [3] = experiment: Spodoptera frugiperda spray test (SPODFR), cotton leaves, ppm; type: in vivo; conditions: 168 h, 7 dat
Text: Spodoptera frugiperda Spray Test (SPODFR)
(§3) Solvent: 7 parts by weight of dimethylformamide
(§4) Emulsifier: 2 parts by weight of alkylaryl polyglycol ether
as §1
Cotton leaves (Gossypium hirsutum) are sprayed with an active compound formulation of the desired concentration and populated with caterpillars of the armyworm (Spodoptera frugiperda).

Liriomyza trifolii = Liriomyza trifolii spray test (LIRITR); type: in vivo; conditions: 168 h, 7 dat
Text: Liriomyza trifolii Spray Test (LIRITR)
as §1

Boophilus microplus = Boophilus microplus test (BOOPMI injection); type: in vivo; conditions: for % Activity dat: BOOPMI injection, 7 dat
Phaedon cochleariae [4] = experiment: Phaedon cochleariae spray test (PHAECO), cabbage leaves, ppm; type: in vivo; conditions: 168 h, 4 ppm, 7 dat
Text: Phaedon cochleariae Spray Test (PHAECO)
as §3, §4, §1

Amblyomma hebraeum = experiment: Amblyomma hebaraeum test (AMBYHE); type: in vivo; conditions: 100 ppm; after 42 days
Description: Amblyomma hebaraeum Test (AMBYHE)
as §2
Tick nymphs (Amblyomma hebraeum) are placed into perforated plastic beakers and immersed in the desired concentration for one minute. The ticks are transferred on filter paper into a Petri dish and stored in a climate-controlled cabinet.
After 42 days, the kill in % is determined.

Tetranychus urticae [5] = experiment: Tetranychus test, OP-resistant (TETRUR spray treatment), bean leaf discs; type: in vivo; conditions: application rate 500 g/ha; after 6 days
Description: Tetranychus Test, OP-Resistant (TETRUR Spray Treatment)
After a time of 6 days, the efficacy in % is determined.

Plutella xylostella = Plutella xylostella spray test (PLUTMA); type: in vivo; conditions: 168 h, 7 dat
Text: Plutella xylostella Spray Test (PLUTMA)
as §3, §4, §1

Tetranychus urticae [6] = experiment: Tetranychus urticae spray test, OP-resistant (TETRUR), bean plants, ppm; type: in vivo; conditions: 168 h, 7 dat
Text: Tetranychus urticae Spray Test, OP-Resistant (TETRUR)
as §3, §4, §1

[7] = test system: Boophilus microplus females of the SP-resistant Parkhurst strain; experiment: Boophilus microplus test (DIP); type: in vivo; conditions: 100 ppm
Procedure, shortened: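 Engorged adult females (8–10 per tube) immersed in compound diluted in water from DMSO solution, concentration in ppm. Kept on filter discs in a climatized room; efficacy from fertile egg laying, assessed after 7 days, 100% meaning no fertile eggs laid.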

[8] = application rate 500 g/ha, after 7 days
[9] = Phaedon cochleariae, in Brassica rapa, foliar, 168 h, read-out: % Activity dat

## Cn1nc(C(F)(F)C(F)(F)F)c(C(F)(F)F)c1C(=O)Nc1ccc(Cl)c(C(=O)NC2(C#N)CC2)c1 [Example 10]
Nilaparvata lugens; 100 g/ha
  inhibition at 100 g/ha: 100%
Nilaparvata lugens; 500 g/ha
  inhibition at 500 g/ha: 100%
Spodoptera frugiperda [1]; Spodoptera frugiperda, foliar, 168 h, SPODFR, 100 g/ha, 7 dat
  inhibition at 100 g/ha: 100%
Spodoptera frugiperda [1]; [8]
  efficacy in %: 100%
Phaedon cochleariae [2]; [9]
  inhibition at 20 g/ha: 100%
  inhibition at 100 g/ha: 100%
Phaedon cochleariae [2]; [8]
  efficacy in %: 100%
Ctenocephalides felis; 100 ppm, after 2 days
  kill in % (effect): 100%
Ctenocephalides felis; Ctenocephalides felis, po, 48 h, CTECFE, 0.8 ppm, 2 dat
  inhibition at 0.8 ppm: 90%
Ctenocephalides felis; Ctenocephalides felis, po, 48 h, CTECFE, 4 ppm, 2 dat
  inhibition at 4 ppm: 98%
Ctenocephalides felis; Ctenocephalides felis, po, 48 h, CTECFE, 20 ppm, 2 dat
  inhibition at 20 ppm: 100%
Lucilia cuprina larvae
  kill in % (efficacy): 100%
Spodoptera frugiperda [3]
  inhibition at 20 ppm: 100%
Liriomyza trifolii
  inhibition at 500 g/ha: 100%
Boophilus microplus; 20 μg/animal, after 7 days
  efficacy in % (laying of fertile eggs): 100%
Boophilus microplus; 0.16 μg/animal
  % Activity dat: 80%
Boophilus microplus; 0.8 μg/animal
  % Activity dat: 100%
Phaedon cochleariae [4]
  inhibition at 4 ppm: 100%
Amblyomma hebraeum
  kill in % (effect): 100%
Tetranychus urticae [5]
  efficacy in %: 90%
Plutella xylostella
  inhibition at 20 ppm: 100%
Tetranychus urticae [6]; 4 ppm
  inhibition at 4 ppm: 100%
Tetranychus urticae [6]; 20 ppm
  inhibition at 20 ppm: 100%
[7]; after 7 days
  efficacy in % (laying of fertile eggs): 100%
[7]; Rhipicephalus microplus, 168 h, BOOPMI DIP, 7 dat
  inhibition at 100 ppm: 100%
